The experiment has as its target hCB1R (Homo sapiens, UniProt P21554). The experiment is described as follows: In vitro functional assay (FLIPR, intracellular Ca2+) with recombinant HEK293 cells, CB1. The class given is cell-based. Also on record: expressed in transfected cells; host or cells: HEK293. To be noted: recombinant HEK293 cells expressing CB1 and Galpha16; 20 min preincubation, then reference agonist; Ca2+ change; read-out: hCB1R: FLIPR; IC50. From the text:
In Vitro Functional Assays with Recombinant Cells:

The values that follow come from patent US7759366B2 (Sanofi-Aventis, priority 2006, dated 2010).

Chain of hCB1R (P21554 whole entry): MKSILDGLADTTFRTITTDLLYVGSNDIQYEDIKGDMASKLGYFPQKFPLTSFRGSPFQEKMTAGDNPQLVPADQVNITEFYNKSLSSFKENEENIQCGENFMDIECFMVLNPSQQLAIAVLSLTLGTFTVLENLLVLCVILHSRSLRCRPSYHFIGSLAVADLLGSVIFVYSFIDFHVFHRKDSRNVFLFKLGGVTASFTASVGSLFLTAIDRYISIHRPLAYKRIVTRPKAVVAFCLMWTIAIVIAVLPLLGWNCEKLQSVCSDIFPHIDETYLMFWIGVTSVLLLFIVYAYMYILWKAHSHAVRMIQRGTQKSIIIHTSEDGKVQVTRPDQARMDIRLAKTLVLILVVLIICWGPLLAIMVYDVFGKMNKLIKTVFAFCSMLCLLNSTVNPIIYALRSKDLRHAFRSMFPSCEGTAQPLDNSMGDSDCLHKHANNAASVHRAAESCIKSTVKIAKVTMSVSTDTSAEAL

With `CC1(C)C(=O)N(c2ccc(C#N)c(C(F)(F)F)c2)C(=O)N1Cc1ccccc1Nc1ccc(C#N)c(C(F)(F)F)c1` [Example 3, 4-{3-[2-(4-cyano-3-trifluoromethylphenylamino)benzyl]-4,4-dimethyl-2,5-dioxoimidazolidin-1-yl}-2-trifluoromethylbenzonitrile], the IC50 was determined as 22 nM.

As to `CC1(C)C(=O)N(c2ccc(C#N)c(C(F)(F)F)c2)C(=O)N1Cc1ccccc1Nc1ccc(Cl)cc1` [Example 4, 4-{3-[2-(4-chlorophenylamino)benzyl]-4,4-dimethyl-2,5-dioxoimidazolidin-1-yl}-2-trifluoromethylbenzonitrile], the IC50 is 4 nM.

Regarding `CC1(C)C(=O)N(c2ccc(C#N)c(C(F)(F)F)c2)C(=O)N1Cc1ccccc1Nc1ccc(S(C)(=O)=O)cc1Cl` [Example 14, 4-{3-[2-(2-chloro-4-methylsulfonylphenylamino)benzyl]-4,4-dimethyl-2,5-dioxoimidazolidin-1-yl}-2-trifluoromethylbenzonitrile], the IC50 was 108 nM.

In the case of `CC1(C)C(=O)N(c2ccc(C#N)c(C(F)(F)F)c2)C(=O)N1Cc1ccccc1Nc1ccc(Cl)c(Cl)c1` [Example 20, 4-{3-[2-(3,4-dichlorophenylamino)benzyl]-4,4-dimethyl-2,5-dioxoimidazolidin-1-yl}-2-trifluoromethylbenzonitrile], the IC50 was 21 nM.

For `CC1(C)C(=O)N(c2ccc(C#N)c(C(F)(F)F)c2)C(=O)N1Cc1ccccc1Nc1ccccc1Cl` [Example 21, 4-{3-[2-(2-chlorophenylamino)benzyl]-4,4-dimethyl-2,5-dioxoimidazolidin-1-yl}-2-trifluoromethylbenzonitrile], the IC50 was found to be 10 nM.

For the molecule `CC1(C)C(=O)N(c2ccc(C#N)c(C(F)(F)F)c2)C(=O)N1Cc1ccccc1Nc1cccc(Cl)c1` [Example 22, 4-{3-[2-(3-chlorophenylamino)benzyl]-4,4-dimethyl-2,5-dioxoimidazolidin-1-yl}-2-trifluoromethylbenzonitrile], the IC50 was 46 nM.

With `CC1(C)C(=O)N(c2ccc(C#N)c(C(F)(F)F)c2)C(=O)N1Cc1ccccc1Nc1ccc(C#N)cc1` [Example 33, 4-{3-[2-(4-cyanophenylamino)benzyl]-4,4-dimethyl-2,5-dioxoimidazolidin-1-yl}-2-trifluoromethylbenzonitrile], the IC50 turned out to be 4 nM.

As for `CC1(C)C(=O)N(c2ccc(C#N)c(C(F)(F)F)c2)C(=O)N1Cc1c(Cl)cc(Cl)cc1Nc1ccc(F)cc1` [Example 35, 4-{3-[2,4-Dichloro-6-(4-fluorophenylamino)benzyl]-4,4-dimethyl-2,5-dioxoimidazolidin-1-yl}-2-trifluoromethylbenzonitrile], the IC50 was found to be 15 nM.

As to `CC1(C)C(=O)N(c2ccc(C#N)c(C(F)(F)F)c2)C(=O)N1Cc1c(Cl)cc(Cl)cc1Nc1ccc(Cl)cc1` [Example 37, 4-{3-[2,4-dichloro-6-(4-chlorophenylamino)benzyl]-4,4-dimethyl-2,5-dioxoimidazolidin-1-yl}-2-trifluoromethylbenzonitrile], the IC50 was determined as 21 nM.

For `CC1(C)C(=O)N(c2ccc(C#N)c(C(F)(F)F)c2)C(=O)N1Cc1cc(Cl)cc(Cl)c1Nc1ccc(F)cc1` [Example 38, 4-{3-[3,5-Dichloro-2-(4-fluorophenylamino)benzyl]-4,4-dimethyl-2,5-dioxoimidazolidin-1-yl}-2-trifluoromethylbenzonitrile], the IC50 amounted to 70 nM.

In the case of `CC1(C)C(=O)N(c2ccc(C#N)c(C(F)(F)F)c2)C(=O)N1Cc1cc(Cl)cc(Cl)c1Nc1ccc(F)cc1F` [Example 39, 4-{3-[3,5-dichloro-6-(2,4-difluorophenylamino)benzyl]-4,4-dimethyl-2,5-dioxoimidazolidin-1-yl}-2-trifluoromethylbenzonitrile], the IC50 was determined as 69 nM.

For `CC1(C)C(=O)N(c2ccc(C#N)c(C(F)(F)F)c2)C(=O)N1Cc1cc(Cl)cc(Cl)c1Nc1ccc(Cl)cc1` [Example 40, 4-{3-[3,5-dichloro-6-(4-chlorophenylamino)benzyl]-4,4-dimethyl-2,5-dioxoimidazolidin-1-yl}-2-trifluoromethylbenzonitrile], the IC50 is 30 nM.

`CC1(C)C(=O)N(c2ccc(C#N)c(C(F)(F)F)c2)C(=O)N1Cc1cc(Cl)ccc1Nc1ccc(F)cc1` [Example 41, 4-{3-[5-Chloro-2-(4-fluorophenylamino)benzyl]-4,4-dimethyl-2,5-dioxoimidazolidin-1-yl}-2-trifluoromethylbenzonitrile]: the IC50 worked out at 28 nM.

With `CC1(C)C(=O)N(c2ccc(C#N)c(C(F)(F)F)c2)C(=O)N1Cc1cccc(Cl)c1Nc1ccc(Cl)cc1` [Example 43, 4-{3-[5-chloro-6-(4-chlorophenylamino)benzyl]-4,4-dimethyl-2,5-dioxoimidazolidin-1-yl}-2-trifluoromethylbenzonitrile], the IC50 turned out to be 77 nM.

Turning to `CC1(C)C(=O)N(c2ccc(C#N)c(C(F)(F)F)c2)C(=O)N1Cc1ccccc1Nc1ccccc1F` [Example 44, 4-{3-[2-(2-fluorophenylamino)benzyl]-4,4-dimethyl-2,5-dioxoimidazolidin-1-yl}-2-trifluoromethylbenzonitrile], the IC50 worked out at 7 nM.

For the molecule `CC1(C)C(=O)N(c2ccnc(C(F)(F)F)c2)C(=O)N1Cc1ccccc1Nc1ccccc1` [Example 65, 5,5-Dimethyl-1-(2-phenylaminobenzyl)-3-(2-trifluoromethylpyridin-4-yl)imidazolidine-2,4-dione], the IC50 amounted to 145 nM.

As to `COC(=O)c1ccc(Nc2ccccc2CN2C(=O)N(c3ccc(C#N)c(C(F)(F)F)c3)C(=O)C2(C)C)c(F)c1` [Example 72, methyl 4-{2-[3-(4-cyano-3-trifluoromethylphenyl)-5,5-dimethyl-2,4-dioxoimidazolidin-1-ylmethyl]phenylamino}-3-fluorobenzoate], the IC50 worked out at 24 nM.

On to `CC1(C)C(=O)N(c2ccc(C#N)c(C(F)(F)F)c2)C(=O)N1Cc1ccccc1Nc1ccc(C(=O)O)cc1F` [Example 80, 4-{2-[3-(4-cyano-3-trifluoromethylphenyl)-5,5-dimethyl-2,4-dioxoimidazolidin-1-ylmethyl]phenylamino}-3-fluorobenzoic acid], for which the IC50 was determined as 33 nM.

Regarding `CC1(C)C(=O)N(c2ccc(C#N)c(C(F)(F)F)c2)C(=O)N1Cc1ccccc1Nc1ccc(N)c(F)c1` [Example 95, 4-{3-[2-(4-Amino-3-fluorophenylamino)benzyl]-4,4-dimethyl-2,5-dioxoimidazolidin-1-yl}-2-trifluoromethylbenzonitrile], the IC50 worked out at 31 nM.

Regarding `COC(=O)c1ccc(Nc2cc(Cl)cc(Cl)c2CN2C(=O)N(c3ccc(C#N)c(C(F)(F)F)c3)C(=O)C2(C)C)cc1` [Example 104, methyl 4-{3,5-dichloro-2-[3-(4-cyano-3-trifluoromethylphenyl)-5,5-dimethyl-2,4-dioxoimidazolidin-1-ylmethyl]phenylamino}benzoate], the IC50 came to 15 nM.

As for `CC1(C)C(=O)N(c2ccc(C#N)c(C(F)(F)F)c2)C(=O)N1Cc1c(Cl)cc(Cl)cc1Nc1ccc(C(=O)O)cc1` [Example 105, 4-{3,5-dichloro-2-[3-(4-cyano-3-trifluoromethylphenyl)-5,5-dimethyl-2,4-dioxoimidazolidin-1-ylmethyl]phenylamino}benzoic acid], the IC50 is 49 nM.

In the case of `COC(=O)c1ccc(Nc2cc(C(F)(F)F)ccc2CN2C(=O)N(c3ccc(C#N)c(C(F)(F)F)c3)C(=O)C2(C)C)cc1` [Example 106, methyl 4-{2-[3-(4-cyano-3-trifluoromethylphenyl)-5,5-dimethyl-2,4-dioxoimidazolidin-1-ylmethyl]-5-trifluoromethylphenylamino}benzoate], the IC50 is 12 nM.

As for `CC1(C)C(=O)N(c2ccc(C#N)c(C(F)(F)F)c2)C(=O)N1Cc1ccc(C(F)(F)F)cc1Nc1ccc(C(=O)O)cc1` [Example 107, 4-{2-[3-(4-cyano-3-trifluoromethylphenyl)-5,5-dimethyl-2,4-dioxoimidazolidin-1-ylmethyl]-5-trifluoromethylphenylamino}benzoic acid], the IC50 was 112 nM.

With `CC1(C)C(=O)N(c2ccc(C#N)c(C(F)(F)F)c2)C(=O)N1Cc1ccccc1Nc1ccc(N)cc1` [Example 113, 4-{3-[2-(4-Aminophenylamino)benzyl]-4,4-dimethyl-2,5-dioxoimidazolidin-1-yl}-2-trifluoromethylbenzonitrile], the IC50 was 4 nM.

On to `CC(C)(C)OC(=O)c1ccc(Nc2cc(F)ccc2CN2C(=O)N(c3ccc(C#N)c(C(F)(F)F)c3)C(=O)C2(C)C)cc1` [Example 125, tert-butyl 4-{2-[3-(4-cyano-3-trifluoromethylphenyl)-5,5-dimethyl-2,4-dioxoimidazolidin-1-ylmethyl]-5-fluorophenylamino}benzoate], for which the IC50 turned out to be 110 nM.

On to `CC(C)Oc1ccc(Nc2ccccc2CN2C(=O)N(c3ccc(C#N)c(C(F)(F)F)c3)C(=O)C2(C)C)cc1` [Example 127, 4-{3-[2-(4-isopropoxyphenylamino)benzyl]-4,4-dimethyl-2,5-dioxoimidazolidin-1-yl}-2-trifluoromethylbenzonitrile], for which the IC50 is 7 nM.

Take `COc1ccc(CN2C(=O)N(c3ccc(C#N)c(C(F)(F)F)c3)C(=O)C2(C)C)c(Nc2ccc(C(=O)O)cc2)c1` [Example 130, 4-{2-[3-(4-cyano-3-trifluoromethylphenyl)-5,5-dimethyl-2,4-dioxoimidazolidin-1-ylmethyl]-5-methoxyphenylamino}benzoic acid]: the IC50 is 32 nM.

As for `CC1(C)C(=O)N(c2ccc(C#N)c(C(F)(F)F)c2)C(=O)N1Cc1ccc(Cl)cc1Nc1ccc(C(=O)O)cc1` [Example 131, 4-{5-chloro-2-[3-(4-cyano-3-trifluoromethylphenyl)-5,5-dimethyl-2,4-dioxoimidazolidin-1-ylmethyl]phenylamino}benzoic acid], the IC50 came to 15 nM.

In the case of `CC1(C)C(=O)N(c2ccc(C#N)c(C(F)(F)F)c2)C(=O)N1Cc1ccc(F)cc1Nc1ccc(C(=O)O)cc1` [Example 133, 4-{2-[3-(4-cyano-3-trifluoromethylphenyl)-5,5-dimethyl-2,4-dioxoimidazolidin-1-ylmethyl]-5-fluorophenylamino}benzoic acid], the IC50 came out at 10 nM.
